Measured values as given in ChEMBL document CHEMBL4145665, “Structure-Activity Relationship of Novel and Selective Biaryl-Chroman GPR40 AgoPAMs” (ACS Med Chem Lett, 2018).
pEC50: −log10 of the molar value.

Assays:
[1] = molecular target: T1, Free fatty acid receptor 1 (Homo sapiens, UniProt O14842); assay: Agonist activity at recombinant human GPR40 expressed in HEK293 cells assessed as increase in IP1 accumulation measured after 60 mins in presence of 100% human serum by HTRF assay; type: functional, cell-based
T1 sequence (O14842 whole entry): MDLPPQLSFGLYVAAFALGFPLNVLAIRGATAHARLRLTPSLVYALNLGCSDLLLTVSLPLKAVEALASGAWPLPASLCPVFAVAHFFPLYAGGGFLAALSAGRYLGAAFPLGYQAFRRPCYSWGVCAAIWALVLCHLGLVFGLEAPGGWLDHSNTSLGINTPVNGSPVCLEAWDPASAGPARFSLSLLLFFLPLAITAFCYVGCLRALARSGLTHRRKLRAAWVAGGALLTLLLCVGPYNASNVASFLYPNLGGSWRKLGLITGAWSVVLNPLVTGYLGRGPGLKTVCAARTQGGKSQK

Rattus norvegicus [2] = assay: Antidiabetic activity in Sprague-Dawley rat assessed as inhibition of blood glucose AUC at 3 mg/kg, po treated prior to dextrose challenge and measured after 20 to 60 mins by IPGTT relative to control; type: functional; details: Rattus norvegicus, Sprague-Dawley, po
[3] = molecular target: T1, Free fatty acid receptor 1; assay: Agonist activity at recombinant human GPR40 expressed in HEK293 cells assessed as increase in IP1 accumulation measured after 60 mins by HTRF assay relative to AM-1638; type: functional, cell-based
[4] = molecular target: T1, Free fatty acid receptor 1; assay: Agonist activity at recombinant human GPR40 expressed in HEK293 cells assessed as increase in IP1 accumulation measured after 60 mins in presence of 100% human serum by HTRF assay relative to AM-1638; type: functional, cell-based
Rattus norvegicus [5] = assay: Antidiabetic activity in Goto Kakizaki rats assessed as plasma concentration required for reduction in blood glucose excursion at 3 mg/kg, po pretreated for 1 hr followed by dextrose challenge measured 3 hrs post dose by OGTT; type: functional, organism-based
Rattus norvegicus [6] = assay: Antidiabetic activity in Goto Kakizaki rats assessed as plasma concentration required for reduction in blood glucose excursion at 10 mg/kg, po pretreated for 1 hr followed by dextrose challenge measured 3 hrs post dose by OGTT; type: functional, organism-based
[7] = Oral bioavailability in Beagle dog at 2 mg/kg administered as single dose; type: ADME, organism-based, Canis lupus familiaris; details: in vivo
[8] = Volume of distribution at steady state in rhesus monkey at 1 mg/kg, iv or 2 mg/kg, po administered as single dose; type: ADME, organism-based, Macaca mulatta; details: in vivo, read-out: Vdss
[9] = Intrinsic clearance in Wistar-Han rat hepatocytes; type: ADME, cell-based, Hepatocyte; details: read-out: CLH
[10] = Intrinsic clearance in Beagle dog hepatocytes; type: ADME, cell-based, Canis lupus familiaris, Hepatocyte; details: read-out: CLH
[11] = AUC (0 to 24 hrs) in Wistar rat at 750 mg/kg administered once daily for 4 days; type: ADME, organism-based; parameters: dose 750 mg/kg, time < 24 hr; details: in vivo
Rattus norvegicus [12] = assay: Toxicity in Wistar rat assessed as increase in liver weight at 200 to 750 mg/kg administered once daily for 4 days; type: organism-based; details: in vivo, 96 h
[13] = molecular target: T2, Free fatty acid receptor 4 (Homo sapiens, UniProt Q5NUL3); assay: Agonist activity at GPR120 (unknown origin); type: functional
T2 sequence (Q5NUL3 whole entry): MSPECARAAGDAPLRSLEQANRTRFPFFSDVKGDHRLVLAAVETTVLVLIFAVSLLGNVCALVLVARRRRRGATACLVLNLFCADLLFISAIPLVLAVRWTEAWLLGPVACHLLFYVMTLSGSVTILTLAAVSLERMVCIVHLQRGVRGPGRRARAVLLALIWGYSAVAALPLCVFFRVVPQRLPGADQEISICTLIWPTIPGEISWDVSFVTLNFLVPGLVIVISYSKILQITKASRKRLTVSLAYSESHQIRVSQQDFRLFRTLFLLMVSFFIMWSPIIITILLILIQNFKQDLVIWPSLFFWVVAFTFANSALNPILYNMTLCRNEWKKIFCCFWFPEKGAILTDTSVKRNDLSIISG

With COc1cc(-c2ccc([C@@H]3CCc4ccc([C@H](C5CC5)[C@H](C)C(=O)[O-])cc4O3)c(F)c2)ccn1.[Na+] as the compound, how does the pEC50 [1] read?
The pEC50 was 7.46.

And the inhibition in vivo at 3 mg/kg (Rattus norvegicus [2])?
Its inhibition in vivo at 3 mg/kg is 103%.

And the max activation [3]?
Its max activation is greater than 179%.

And the max activation [4]?
Its max activation is greater than 179%.

What about the Cp (Rattus norvegicus [5]) of the same compound?
The Cp was 2.2 µM.

What about the Cp (Rattus norvegicus [6]) of the same compound?
The Cp was 4.9 µM.

And the bioavailability [7]?
The bioavailability was 79%.

What about the Vd [8] of the same compound?
The Vd was 0.48 L/kg.

And the CLint scaled [9]?
The CLint scaled was 241 mL/min/kg.

And the CLint scaled [10]?
Its CLint scaled is 126 mL/min/kg.

And the AUC at 24 h [11]?
The AUC at 24 h was 7350 µM·h.

And the Activity (Rattus norvegicus [12])?
The Activity was “Non-Toxic”.

What about the pEC50 [13] of the same compound?
The pEC50 was less than 5.00.
